This is an account of results in PubChem BioAssay AID1552 (Sanford-Burnham Center for Chemical Genomics, 2009).

Calls of active or inactive are those of the source. No rule for the calls is given here.

Ubiquitin-conjugating enzyme E2 N (Homo sapiens), sequence (P61088 whole entry, looked up): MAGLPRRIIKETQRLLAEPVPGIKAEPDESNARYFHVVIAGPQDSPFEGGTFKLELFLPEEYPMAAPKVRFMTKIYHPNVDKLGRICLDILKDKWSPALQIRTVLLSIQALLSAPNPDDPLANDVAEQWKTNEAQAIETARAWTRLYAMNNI

This assay has as its target Ubiquitin-conjugating enzyme E2 N (Homo sapiens) (UniProt P61088). The experiment in a line: NMR detection of UBE2N ligand binding – biophysical, purified protein (AID 1552). The settings on record: NMR binding to purified UBE2N.
By Kd is commonly meant the concentration at which binding is half-saturated. Turning to `Cc1cc(C(=O)Nn2cnnc2)cs1`, the Kd was > 4 mM (inactive). Consider `CC(=O)c1cc2c(cc1O)OC(C)(C)C=C2`, for which the Kd was > 4 mM (inactive).

`O=C1CC(NCc2ccco2)C(=O)NN1` (centres undefined): the Kd is > 4 mM (inactive). The result for `c1ccc(CSc2ncccn2)cc1` reads > 4 mM (inactive); that for `OCc1ccc2c(c1)CCO2`, > 4 mM (inactive); that for `Cc1sc2nc(C)n(NC(N)=O)c(=O)c2c1C`, > 4 mM (inactive). The result for `Cc1c(-c2ccc(F)cc2)[n+](=O)c2c(n1[O-])CCC2` reads > 4 mM (inactive); that for `Cn1cc(Cl)c(C(=O)NC2CCCC2)n1`, > 4 mM (inactive); that for `Fc1ccc(N2CCNCC2)cc1`, > 4 mM (inactive). The result for `Nc1ccc(CCC(=O)O)cc1` reads > 4 mM (inactive); that for `COc1ccc(C2(C)NC(=O)NC2=O)cc1` (centres undefined), > 4 mM (inactive); that for `Cc1nc(-c2ccccc2)sc1CO`, > 4 mM (inactive). With `O=c1c2ccccc2nc2n1CCC2O` (centres undefined), the Kd is > 4 mM (inactive). Regarding `Cc1ccc(NC(=O)N2CCC(C(N)=O)CC2)cc1`, the Kd is > 4 mM (inactive).

As to `CN1CCC(O)N1C(=O)c1ccccc1O` (centres undefined), the Kd was > 4 mM (inactive). The result for `Oc1ccccc1C(=S)N1CCCCCC1` reads > 4 mM (inactive); that for `O=C1NC(=Nc2ccccc2Cl)SC1(CO)CO`, > 4 mM (inactive).

Take `COc1ccc(C(=O)O)cc1OC`: the Kd was > 4 mM (inactive). The result for `OCC(O)Cc1ccc2c(c1)OCO2` (centres undefined) reads > 4 mM (inactive); that for `COc1ccc(C(=O)/C=C2\NC(=S)NC2=O)cc1`, > 4 mM (inactive); that for `Cc1cc(N)on1`, > 4 mM (inactive). The result for `CCN1CCn2c1nc(N1CCOCC1)nc2=O` reads > 4 mM (inactive); that for `O=C(CN1C(=O)c2cccc3cccc(c23)C1=O)NO`, > 4 mM (inactive); that for `Nc1ccc2c(C(F)(F)F)cc(=O)oc2c1`, > 4 mM (inactive). The result for `Cc1cc(O)cc(O)c1C(=O)O` reads > 4 mM (inactive); that for `CC1(C)CC23C(=O)CCC(O)C2(C)CCC13` (centres undefined), > 4 mM (inactive). In the case of `O=C1NC(=S)N/C1=C\c1ccccc1`, the Kd is > 4 mM (inactive). The result for `CC(C)c1ccccc1NC(=O)c1cnccn1` reads > 4 mM (inactive).

Turning to `O=S(=O)(Nc1cccc2cn[nH]c12)c1ccc(F)cc1`, the Kd was > 4 mM (inactive). The result for `COc1cccc(Oc2ccc(N)cn2)c1` reads > 4 mM (inactive).

`Cc1cc(=O)n2ncn(Cc3ccccc3)c2n1`: the Kd is > 4 mM (inactive). For the molecule `O=C(O)C1NCCc2ccccc21` (centres undefined), the Kd is > 4 mM (inactive). With `Cc1occc(=O)c1O`, the Kd is > 4 mM (inactive). The result for `CC(=O)O[C@H]1CC[C@@]2(C)C(=CCC3C2CC[C@@]2(C)C3CC[C@@H]2C(C)CCCC(C)C)C1` (some centres undefined) reads > 4 mM (inactive); that for `NC(=O)CN1CC(c2ccccc2)CC1=O` (centres undefined), > 4 mM (inactive).

For the molecule `CCC1(CC)C(=O)NC(=O)N=C1N`, the Kd was > 4 mM (inactive). Regarding `c1ccc(-c2nc3ccccc3nc2-c2ccccn2)nc1`, the Kd is > 4 mM (inactive). The result for `Cc1c(F)cccc1NS(=O)(=O)c1ccccc1C#N` reads > 4 mM (inactive); that for `Cc1cccc(OCc2nnc(N)s2)c1`, > 4 mM (inactive). With `c1cncc(Cn2cccc2)c1`, the Kd was > 4 mM (inactive). The result for `O=S(=O)(O)c1nc2ccccc2[nH]1` reads > 4 mM (inactive). Consider `O=C1NC(=O)/C(=C/c2ccc(O)cc2)N1`, for which the Kd is > 4 mM (inactive). The result for `O=c1cc(-c2ccc(O)cc2)oc2cc(O[C@@H]3O[C@H](CO)[C@@H](O)[C@H](O)[C@H]3O[C@@H]3OC[C@](O)(CO)[C@H]3O)cc(O)c12` reads > 4 mM (inactive); that for `Cc1cc(C)n(-c2ccc(Cl)nn2)n1`, > 4 mM (inactive). The result for `CC1(C)N([O-])c2cc([N+](=O)[O-])ccc2[N+]1=O` reads > 4 mM (inactive). The result for `COc1ccc([C@H]2Oc3c(I)c(OC)cc(OC)c3C[C@@H]2O)cc1OC` reads > 4 mM (inactive); that for `OCC1Cc2ccccc2N1` (centres undefined), > 4 mM (inactive); that for `O=C(O)c1cccnc1N1CCOCC1`, > 4 mM (inactive). `CC(=O)c1sc2nc(N)nn2c1C`: the Kd was > 4 mM (inactive). Regarding `O=C(O)c1cccc2c1OCC2`, the Kd is > 4 mM (inactive). For the molecule `CCOC(=O)c1cnc2cc(C)nn2c1C`, the Kd is > 4 mM (inactive). Consider `C=C(C)[C@H]1CC=C(C(=O)O)CC1`, for which the Kd is > 4 mM (inactive). The result for `CNC(=O)C1COc2ccccc2O1` (centres undefined) reads > 4 mM (inactive).

As for `Cn1cnc([N+](=O)[O-])c1Sc1ncnc2nc[nH]c12`, the Kd was > 4 mM (inactive).

For the molecule `CC(C)(OC(=O)c1ccccc1)[C@@H]1Cc2cc3ccc(=O)oc3cc2O1`, the Kd is > 4 mM (inactive).

Consider `Clc1ccc(-c2noc(CN3CCCC3)n2)cc1`, for which the Kd was > 4 mM (inactive). Consider `O=C1NC(=O)C(=Cc2ccccc2)C(=O)N1`, for which the Kd is > 4 mM (inactive). The result for `O=c1nc(N2CCCCC2)nc2n1CCO2` reads > 4 mM (inactive). The result for `COc1ccc2[nH]cc(CN(C)C)c2c1` reads > 4 mM (inactive); that for `O=C(Nc1ccccc1CO)c1ccccc1F`, > 4 mM (inactive); that for `COc1cc2c(c(OC)c1OC)-c1ccc(O)c(=O)cc1[C@@H](NC(C)=O)CC2`, > 4 mM (inactive). The result for `OCCNC(=S)Nc1ccccc1` reads > 4 mM (inactive). Take `Cc1cc(C(=O)Nc2ccc3c(c2)OCO3)cs1`: the Kd was > 4 mM (inactive).

For `CC(=O)Nc1ccc(N2C(=O)C=CC2=O)cc1C`, the Kd is > 4 mM (inactive). The result for `CC(=O)Nn1c(=O)[nH]c2ccccc2c1=O` reads > 4 mM (inactive). The result for `CC(=O)NC1(NC(C)=O)CCN(C)CC1` reads > 4 mM (inactive); that for `COc1cc2c(cc1OC)[C@@]13CCN4CC5=CCOC6CC(=O)N2C1[C@H]6[C@H]5C[C@H]43` (some centres undefined), > 4 mM (inactive); that for `CC1CC[C@@]2(OC1)O[C@H]1CC3C4CC[C@@H]5C[C@@H](O)CC[C@]5(C)C4CC[C@]3(C)[C@H]1[C@@H]2C` (some centres undefined), > 4 mM (inactive). The result for `C[N+](C)(C)CC(O)CC(=O)O` (centres undefined) reads > 4 mM (inactive). Regarding `CC(C)c1c(O)c(-c2cc3c(c(C(C)C)c2O)CCC2C(C)(C)CCC[C@]32C)cc2c1CCC1C(C)(C)CCC[C@]21C` (some centres undefined), the Kd is > 4 mM (inactive). For `Nc1ccc(NS(=O)(=O)c2ccc(N)cc2)cc1`, the Kd is > 4 mM (inactive). As to `CCOC12NC(=O)CC(=O)N1C(c1ccccc1)=CS2` (centres undefined), the Kd is > 4 mM (inactive).

For `O=C1C=C(O)c2ccccc2C1=O`, the Kd is > 4 mM (inactive). The result for `CNC(=O)Oc1ccc2c(c1)[C@]1(C)CCN(C)[C@@H]1N2C` reads > 4 mM (inactive); that for `NC12CC3CC(C1)CC(CC(=O)O)(C3)C2`, > 4 mM (inactive).

Regarding `CC(=O)CS(=O)(=O)c1ccccc1`, the Kd was > 4 mM (inactive). Turning to `CCn1nnc(NC(=O)c2cc3ccccc3o2)n1`, the Kd is > 4 mM (inactive). For the molecule `COc1ccc([C@@H]2CC(=O)c3c(O)cc(O)cc3O2)cc1O`, the Kd is > 4 mM (inactive). The result for `CC(=O)c1cc(C(N)=O)c(=S)[nH]c1C` reads > 4 mM (inactive). The result for `O=C(NCc1ccco1)c1nc2ncccn2n1` reads > 4 mM (inactive). The result for `O=S1(=O)NC(=NCc2ccccc2)c2ccccc21` reads > 4 mM (inactive); that for `O=c1[nH]cc(S(=O)(=O)N2CCc3ccccc32)c(=O)[nH]1`, > 4 mM (inactive). Regarding `NC(=O)C1CCN(C(=O)Nc2ccccc2)CC1`, the Kd is > 4 mM (inactive). On to `O=c1sc2ccccc2n1CN1CCOCC1`, for which the Kd was > 4 mM (inactive).

In the case of `O=C(O)CC(O)c1nc2ccccc2[nH]1` (centres undefined), the Kd was > 4 mM (inactive). The result for `COC(=O)c1ccc2nsnc2c1` reads > 4 mM (inactive). The result for `O=C(O)Cn1cc(C(F)(F)F)ccc1=O` reads > 4 mM (inactive); that for `NC(=O)c1cccc(Cl)n1`, > 4 mM (inactive). Regarding `COC(=O)[C@@H]1OC(=O)C2OC23[C@@]1(C)CCC1[C@]2(C)C(C[C@H](O)[C@]13C)C(C)(C)[C@H](OC(C)=O)C[C@@H]2OC(C)=O` (some centres undefined), the Kd was > 4 mM (inactive). The result for `COc1ccc2nc(N)sc2c1` reads > 4 mM (inactive); that for `CN(C)S(=O)(=O)Nc1ccc(Br)cc1F`, > 4 mM (inactive); that for `O=C(CC1NCCNC1=O)Nc1ccccc1` (centres undefined), > 4 mM (inactive). The result for `NCc1ccccc1N1CCCCC1` reads > 4 mM (inactive). On to `Cc1ccc(C(=O)Nn2cnnc2)s1`, for which the Kd is > 4 mM (inactive).

In the case of `Cc1cc2cc3c(C)cc(=O)oc3c(C)c2o1`, the Kd is > 4 mM (inactive).

With `CC(=O)NC(=S)Nc1ccccc1N1CCOCC1`, the Kd is > 4 mM (inactive).

Consider `CCOC(=O)c1c(C)cc(O)cc1O`, for which the Kd was > 4 mM (inactive).

Consider `COc1ccccc1NC(=O)C1CCC(=O)N1` (centres undefined), for which the Kd was > 4 mM (inactive).

As to `Cc1ccc2cccc(OC(=O)N3CCCC3)c2n1`, the Kd was > 4 mM (inactive). The result for `O=C(O)c1ccc2c(c1)OCCO2` reads > 4 mM (inactive); that for `COC(=O)[C@]1(C)CC[C@]2(C)CC[C@]3(C)C4=CCc5c(cc(O)c(O)c5C)[C@]4(C)CC[C@@]3(C)C2C1` (some centres undefined), > 4 mM (inactive); that for `S=C(Cc1cccnc1)N1CCOCC1`, > 4 mM (inactive). Turning to `C[C@]12CC(=O)C3C(CC[C@@H]4C[C@H](O)CC[C@]34C)C1CC[C@]2(O)C(=O)CO` (some centres undefined), the Kd was > 4 mM (inactive). Regarding `COC(=O)CC1=Nc2ccccc2NC(=O)C1`, the Kd is > 4 mM (inactive).
